# Biological target: T1, PRMT5 (Homo sapiens, UniProt O14744)
# T1 construct: endogenous in cells; host or cells: MCF-7
# Assay: PRMT5 Cell Target Engagement (TE) Assay
# Format: cell-based
# Conditions: MCF-7 cells, 3 days treatment, nuclear SDMA by high content imaging
# Source text: The PRMT5 TE assay is a biomarker assay for identifying compounds that inhibit symmetric dimethylation of arginine (SDMA) of PRMT5 substrates. The following substrates have been reported for PRMT5: Histone H2A and H4 R3, Histone H3 R2, Histone H3 R8, spliceosome Sm proteins, ribosomal protein RPS10, p53, FEN1, nucleoplasmin, nucleolin, EGFR and EBNA. The assay will focus on detecting symmetrically dimethylated nuclear proteins using high content imaging technology. Detection of the expression of symmetrically dimethylated nuclear proteins is through a mixture of primary rabbit monoclonal antibodies to SDMA (CST 13222), which in turn recognized by an Alexafluor 488 dye-conjugated anti-rabbit IgG secondary antibody. The IN Cell Analyzer 2200 or Opera-Phenix measures nuclear Alexafluor 488 fluorescent dye intensity that is directly related to the level of expression of symmetrically dimethylated nuclear proteins at the single cell level. Nuclear AF488 dye intensities are compared to the mean value for DMSO treated cells (MIN) to report percent of inhibition for each compound-treated well.
# In this assay, the cell potency (EC50) of each compound was determined from a ten point (1:3 serial dilution; top compound concentration of 10000 nM) titration curve using the following outlined procedure. Each well of a BD falcon collagen coated black/clear bottom 384-well plate was seeded with 4000 MCF-7 cells in 30 μl media and allowed to attach for 5 hours. Media is ATCC-formulated Eagle's Minimum Essential Medium, Catalog No. 30-2003. The following components were added to the base medium: 0.01 mg/mL human recombinant insulin; fetal bovine serum to a final concentration of 10%. Additional 30 μl of media containing 2× compounds were added to each well. Cells were treated for 3 days in 37° C. CO2 incubator. On day 3, cells were fixed with Cytofix, permeabilized with 0.4% Triton-X-100/Cytofix, and washed with D-PBS without Ca/Mg. Cells were blocked with Licor Odessey blocking reagent for 1 hour at room temperature, followed by incubation with anti-SDMA (1:1000) antibody at 4° C. overnight. 1° antibody was removed, followed by three washings with DPBS without Ca/Mg and 0.05% Tween20. Hoechst (5 μg/mL), Cell Mask deep stain (1:2000) and Alexa488-conjugated goat anti-rabbit IgG (2 μg/mL) was added for 1 hour at room temperature. A final washing step (three washes) was performed before sealing plate for imaging on In Cell Analyzer 2200 or Opera-Phenix. Images from analyzer were uploaded to Columbus for image analysis. IC50 values were determined by 4 parameters robust fit of percent fluorescence units vs. (Log10) compound concentrations.
# T1 sequence (O14744 whole entry): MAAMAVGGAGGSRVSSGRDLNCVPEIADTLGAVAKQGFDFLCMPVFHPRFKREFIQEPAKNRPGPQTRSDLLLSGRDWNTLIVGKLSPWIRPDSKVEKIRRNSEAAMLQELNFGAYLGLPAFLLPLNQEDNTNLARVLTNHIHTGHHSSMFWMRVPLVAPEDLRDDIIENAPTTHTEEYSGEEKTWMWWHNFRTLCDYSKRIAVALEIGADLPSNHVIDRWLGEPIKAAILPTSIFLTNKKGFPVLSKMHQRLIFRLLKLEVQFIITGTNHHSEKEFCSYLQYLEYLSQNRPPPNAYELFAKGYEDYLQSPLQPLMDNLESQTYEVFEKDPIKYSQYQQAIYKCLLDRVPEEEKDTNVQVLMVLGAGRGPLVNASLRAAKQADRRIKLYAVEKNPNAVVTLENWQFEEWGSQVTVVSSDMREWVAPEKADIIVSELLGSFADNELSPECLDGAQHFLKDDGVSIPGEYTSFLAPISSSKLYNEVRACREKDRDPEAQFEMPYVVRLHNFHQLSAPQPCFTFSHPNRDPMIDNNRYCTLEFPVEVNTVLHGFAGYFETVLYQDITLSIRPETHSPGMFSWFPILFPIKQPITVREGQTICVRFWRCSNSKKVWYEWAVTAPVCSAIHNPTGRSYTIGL
# T1 sequence (Q9BQA1 whole entry partner): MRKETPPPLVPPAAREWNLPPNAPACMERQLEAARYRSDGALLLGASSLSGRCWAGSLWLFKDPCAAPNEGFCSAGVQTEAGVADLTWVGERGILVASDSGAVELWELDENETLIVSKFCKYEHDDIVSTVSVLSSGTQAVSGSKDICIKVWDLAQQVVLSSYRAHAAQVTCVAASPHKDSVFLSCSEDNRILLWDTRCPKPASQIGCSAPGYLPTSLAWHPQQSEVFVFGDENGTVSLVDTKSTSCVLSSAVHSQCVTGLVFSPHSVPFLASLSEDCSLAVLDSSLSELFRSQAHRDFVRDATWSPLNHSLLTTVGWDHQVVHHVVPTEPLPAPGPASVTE
row,EC50 [µM],SMILES
1,0.12,"C[C@H](c1cc(F)cc(C(F)F)c1)[C@H]1O[C@@H](n2ccc3c(N)ncnc32)[C@H](O)[C@]1(C)O (single isomer, unassigned) [Example 83]"
2,0.253,"C[C@H](c1cc(F)cc(C(F)F)c1)[C@H]1O[C@@H](n2ccc3c(N)ncnc32)[C@H](O)[C@]1(C)O (single isomer, unassigned) [Example 84]"
3,0.076,"Cc1ncnc2c1ccn2[C@@H]1O[C@H]([C@H](O)c2cc(C(F)F)c(F)c3c2CNCC3)[C@@](C)(O)[C@H]1O (single isomer, unassigned) [Example 89]"
4,0.0074,"Cc1ncnc2c1ccn2[C@@H]1O[C@H]([C@@H](O)c2cc(C(F)F)c(F)c3c2CNCC3)[C@@](C)(O)[C@H]1O (single isomer, unassigned) [Example 90]"
5,0.278,"Cc1ncnc2c1ccn2[C@@H]1O[C@H]([C@H](C)c2cc(C(F)F)c(F)c3c2CNCC3)[C@@](C)(O)[C@H]1O (single isomer, unassigned) [Example 92]"
6,0.0014,"Cc1ncnc2c1ccn2[C@@H]1O[C@H]([C@@H](C)c2cc(C(F)F)c(F)c3c2CNCC3)[C@@](C)(O)[C@H]1O (single isomer, unassigned) [Example 93]"
7,0.187,"C[C@@]1(O)[C@@H]([C@H](O)c2ccc(F)c(F)c2)O[C@@H](n2ccc3c(N)ncnc32)[C@@H]1O [Example 1, (2R,3S,4R,5R)-5-(4-amino-7H-pyrrolo[2,3-d]pyrimidin-7-yl)-2-((R)-(3,4-difluorophenyl)(hydroxy)methyl)-3-methyltetrahydrofuran-3,4-diol]"
8,> 10,"C[C@@]1(O)[C@@H]([C@@H](O)c2ccc(F)c(F)c2)O[C@@H](n2ccc3c(N)ncnc32)[C@@H]1O [Example 2, (2R,3S,4R,5R)-5-(4-amino-7H-pyrrolo[2,3-d]pyrimidin-7-yl)-2-((S)-(3,4-difluorophenyl)(hydroxy)methyl)-3-methyltetrahydrofuran-3,4-diol]"
9,0.145,"C[C@]1(O)[C@@H](O)[C@H](n2ccc3c(N)ncnc32)O[C@@H]1[C@](C)(O)c1ccc(F)c(F)c1 [Example 3, (2R,3S,4R,5R)-5-(4-amino-7H-pyrrolo[2,3-d]pyrimidin-7-yl)-2-((R)-1-(3,4-difluorophenyl)-1-hydroxyethyl)-3-methyltetrahydrofuran-3,4-diol]"
10,0.016,"C[C@@]1(O)[C@@H]([C@H](O)c2cc(F)cc(C(F)F)c2)O[C@@H](n2ccc3c(N)ncnc32)[C@@H]1O [Example 4, (2R,3S,4R,5R)-5-(4-amino-7H-pyrrolo[2,3-d]pyrimidin-7-yl)-2-((R)-(3-(difluoromethyl)-5-fluorophenyl)(hydroxy)methyl)-3-methyltetrahydrofuran-3,4-diol]"
11,5.06,"C[C@@]1(O)[C@@H]([C@@H](O)c2cc(F)cc(C(F)F)c2)O[C@@H](n2ccc3c(N)ncnc32)[C@@H]1O [Example 5, (2R,3S,4R,5R)-5-(4-amino-7H-pyrrolo[2,3-d]pyrimidin-7-yl)-2-((S)-(3-(difluoromethyl)-5-fluorophenyl)(hydroxy)methyl)-3-methyltetrahydrofuran-3,4-diol]"
12,0.0068,"C[C@@]1(O)[C@@H]([C@H](O)c2cc(F)cc(C(F)F)c2F)O[C@@H](n2ccc3c(N)ncnc32)[C@@H]1O [Example 6, (2R,3S,4R,5R)-5-(4-amino-7H-pyrrolo[2,3-d]pyrimidin-7-yl)-2-((R)-(3-(difluoromethyl)-2,5-difluorophenyl)(hydroxy)methyl)-3-methyltetrahydrofuran-3,4-diol]"
13,6.55,"C[C@@]1(O)[C@@H]([C@@H](O)c2cc(F)cc(C(F)F)c2F)O[C@@H](n2ccc3c(N)ncnc32)[C@@H]1O [Example 7, (2R,3S,4R,5R)-5-(4-amino-7H-pyrrolo[2,3-d]pyrimidin-7-yl)-2-((S)-(3-(difluoromethyl)-2,5-difluorophenyl)(hydroxy)methyl)-3-methyltetrahydrofuran-3,4-diol]"
